In PMC10183817, “Inhibition of ATP synthase reverse activity restores energy homeostasis in mitochondrial pathologies” (The EMBO Journal, 2023):

Assays:
[1] = target: T1, mitochondrial ATP synthase (F1F0ATPase, Complex V, CV) (Mus musculus, UniProt P56480+Q03265); experiment: HyFS: acidification rate (Seahorse XF96), frozen heart mitochondria; format: biochemical; settings: EPI 100 nM; ATP 20 mM; pH 7.2; MAS buffer; partial inhibition, ATP synthesis not impaired
T1 construct: gene Atp5f1a; native fully assembled complex in isolated mouse heart mitochondria (frozen/thawed, or separated by blue native gel); with ATP synthase F(1) complex subunit gamma, mitochondrial; ATP synthase F(1) complex subunit delta, mitochondrial; ATP synthase F(1) complex subunit epsilon, mitochondrial; ATP synthase peripheral stalk subunit OSCP, mitochondrial; ATP synthase peripheral stalk subunit b, mitochondrial; ATP synthase peripheral stalk subunit d, mitochondrial; ATP synthase peripheral stalk subunit F6, mitochondrial; ATP synthase F(0) complex subunit a; ATP synthase F(0) complex subunit 8; ATP synthase F(0) complex subunit C1, mitochondrial

[2] = target: T2, purified bovine CV (Complex V, F-type ATP synthase) (Bos taurus, UniProt P00829+P19483); experiment: competition with ATPIF1-GFP for CV tetramer, blue native gel fluorescence; settings: indirect binding read-out; prevents ATPIF1-GFP binding, does not displace bound ATPIF1; room temperature
T2 construct: gene ATP5F1A; native purification from bovine heart; monomer (LMNG), tetramer (GDN) and oligomer preparations; with ATP synthase F(1) complex subunit gamma, mitochondrial; ATP synthase F(1) complex subunit delta, mitochondrial; ATP synthase F(1) complex subunit epsilon, mitochondrial; ATP synthase peripheral stalk subunit OSCP, mitochondrial; ATP synthase peripheral stalk subunit b, mitochondrial; ATP synthase peripheral stalk subunit d, mitochondrial; ATP synthase peripheral stalk subunit F6, mitochondrial; ATP synthase F(0) complex subunit a; ATP synthase F(0) complex subunit 8; ATP synthase F(0) complex subunit C1, mitochondrial

[3] = target: T2, purified bovine CV (Complex V, F-type ATP synthase); experiment: in-gel ATP hydrolysis, blue native gel, purified CV; format: biochemical; settings: monomer, tetramer and oligomers, also F1 subcomplex; independent of the ATPIF1 amount
[4] = target: T1, mitochondrial ATP synthase (F1F0ATPase, Complex V, CV); experiment: acidification rate (Seahorse XF96), isolated heart mitochondria; format: biochemical; settings: ATP 20 mM; pH 7.2; oligomycin-sensitive

| % inhibition [1] | SMILES | competition with ATPIF1-GFP for CV tetramer, blue native gel fluorescence [2] | in-gel ATP hydrolysis, blue native gel, purified CV [3] | acidification rate (Seahorse XF96), isolated heart mitochondria [4] |
| --- | --- | --- | --- | --- |
| ~ 30% | Oc1cc(O)c2c(c1)O[C@@H](c1ccc(O)c(O)c1)[C@@H](O)C2 [EPI, (+)-Epicatechin] | In both purified tetramers and isolated mitochondria, EPI prevented the binding of ATPIF1‐GFP | We found that EPI inhibited ATP hydrolysis independently of the amount of ATPIF1 | – |
| – | Nc1ncnc2c1ncn2[C@@H]1O[C@H](COP(=O)(O)OP(=O)(O)OP(=O)(O)O)[C@@H](O)[C@H]1O [ATP] | – | – | addition of ATP resulted in a sharp increase in proton release that was oligomycin sensitive |
